Results published in patent publication US11326164B2, “Trimethylglycylglycerin compositions and their use in developing anti-cancer drugs and RNA vaccines” (WJWU & LYNN Institute for Stem Cell Research, priority 2019, dated 2022).

Test system: Human lung epithelial cell line and lung cancer cell lines
Assay: cell cultivation in TMGG (tolerance)
Format: cell-based
Conditions: cultivated in 0.01˜3.0M TMGG with all necessary supplements, up to 48 hours
Procedure: Human lung epithelial cell line and lung cancer cell lines were purchased from ATCC and cultivated according to manufacturer's protocols at 37° C. under 5% CO2. Cells were passaged at about 50%-70% confluence by exposing the cells to trypsin/EDTA for about 1 min and then rinsing two times in HBSS containing trypsin inhibitor. The detached cells were replated at 1:5 dilutions in fresh EpiLife medium with HKGS supplements. For miRNA transfection, pri-/pre-miR-302 prepared from Example 1 was dissolved in 0.01˜5.0M, preferably 0.1˜2.0M, of TMGG solution at a desired concentration up to 5 mg/ml and then directly applied to cell culture medium based on the miRNA amount needed. For example, to deliver […] pri-/pre-miR-302, we would need to add 40 μl of the TMGG-dissolved pri-/pre-miR-302 (at 5 mg/ml) into the cell culture medium and then mix well with the cells.

## trimethylglycylglycerins [TMGG]
  adverse effect on cultivated cells: not showing any adverse effect
